Data as given in PMC6925656 (Clinical pharmacology and therapeutics, 2019).

Tests used:
[1] = target: T1, human OCT1 (Homo sapiens, UniProt O15245); assay: Uptake into OCT1-expressing or nonexpressing Xenopus laevis oocytes
T1 sequence (O15245 1-554): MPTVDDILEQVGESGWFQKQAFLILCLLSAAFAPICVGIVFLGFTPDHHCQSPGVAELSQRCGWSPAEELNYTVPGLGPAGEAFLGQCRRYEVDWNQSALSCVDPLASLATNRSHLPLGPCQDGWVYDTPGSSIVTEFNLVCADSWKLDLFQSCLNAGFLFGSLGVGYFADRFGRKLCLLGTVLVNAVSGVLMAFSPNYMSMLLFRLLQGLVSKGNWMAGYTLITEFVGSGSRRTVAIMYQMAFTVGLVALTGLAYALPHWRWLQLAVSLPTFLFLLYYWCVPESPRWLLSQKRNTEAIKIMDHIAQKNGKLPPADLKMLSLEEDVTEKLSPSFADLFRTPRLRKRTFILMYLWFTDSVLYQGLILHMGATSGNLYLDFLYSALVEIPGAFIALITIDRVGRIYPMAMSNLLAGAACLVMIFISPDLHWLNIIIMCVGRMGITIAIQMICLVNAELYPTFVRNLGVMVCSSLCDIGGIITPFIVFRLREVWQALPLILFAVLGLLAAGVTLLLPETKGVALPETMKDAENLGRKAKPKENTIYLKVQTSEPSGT

[2] = tested on: HepG2 cells; assay: Uptake into HepG2 liver cancer cells; assay type: in vitro ADME, human
[3] = tested on: p38α; conditions: cited from earlier work
[4] = target: T2, human OCT3 (Homo sapiens, UniProt O75751); assay: Sorafenib transport in HEK293 cells overexpressing human OCT3; assay type: in vitro ADME; conditions: HEK293 cells overexpressing human OCT3, Figure S1
T2 sequence (O75751 1-556): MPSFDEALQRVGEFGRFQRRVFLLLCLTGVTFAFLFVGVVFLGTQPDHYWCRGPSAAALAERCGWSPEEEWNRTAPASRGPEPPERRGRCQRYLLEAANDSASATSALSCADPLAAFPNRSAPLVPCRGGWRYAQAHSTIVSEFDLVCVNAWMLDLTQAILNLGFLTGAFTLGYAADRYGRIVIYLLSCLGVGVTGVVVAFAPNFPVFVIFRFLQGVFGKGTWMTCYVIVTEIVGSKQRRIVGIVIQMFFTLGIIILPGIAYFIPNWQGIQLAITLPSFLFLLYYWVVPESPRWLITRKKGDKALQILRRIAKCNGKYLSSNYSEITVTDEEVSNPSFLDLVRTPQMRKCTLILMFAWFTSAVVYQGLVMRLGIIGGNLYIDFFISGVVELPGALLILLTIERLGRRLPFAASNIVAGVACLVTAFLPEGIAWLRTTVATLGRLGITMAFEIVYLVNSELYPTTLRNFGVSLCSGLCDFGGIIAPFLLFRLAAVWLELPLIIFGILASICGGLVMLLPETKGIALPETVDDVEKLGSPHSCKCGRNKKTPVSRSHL

[5] = target: human OCT2 (Homo sapiens, UniProt O15244); conditions: HEK293 cells overexpressing human OCT2, Figure S1
[6] = target: T3, mOATP2B1 (Mus musculus, UniProt Q8BXB6); assay: Sorafenib uptake by HEK cells overexpressing mOATP2B1; assay type: in vitro ADME; conditions: Figure S4
T3 sequence (Q8BXB6 1-683): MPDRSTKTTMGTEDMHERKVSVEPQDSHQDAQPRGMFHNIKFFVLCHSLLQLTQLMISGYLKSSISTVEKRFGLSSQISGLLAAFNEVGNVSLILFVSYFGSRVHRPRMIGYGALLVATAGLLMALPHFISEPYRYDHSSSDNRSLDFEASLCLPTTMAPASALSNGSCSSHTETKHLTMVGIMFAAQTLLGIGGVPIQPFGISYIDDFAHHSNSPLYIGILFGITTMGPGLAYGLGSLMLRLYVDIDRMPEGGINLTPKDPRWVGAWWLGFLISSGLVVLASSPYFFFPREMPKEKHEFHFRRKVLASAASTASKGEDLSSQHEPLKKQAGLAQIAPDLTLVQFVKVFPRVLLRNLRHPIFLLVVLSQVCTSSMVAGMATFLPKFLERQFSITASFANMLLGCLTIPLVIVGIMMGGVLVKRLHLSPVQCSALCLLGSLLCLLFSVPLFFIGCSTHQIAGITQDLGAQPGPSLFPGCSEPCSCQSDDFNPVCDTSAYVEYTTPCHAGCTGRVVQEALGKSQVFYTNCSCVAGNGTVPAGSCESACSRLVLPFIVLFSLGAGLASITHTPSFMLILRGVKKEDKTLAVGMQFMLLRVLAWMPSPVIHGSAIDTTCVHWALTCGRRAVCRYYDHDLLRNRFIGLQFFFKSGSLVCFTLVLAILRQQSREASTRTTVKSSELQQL

[7] = tested on: OCT1; conditions: cited from earlier work
[8] = target: p38α (MAPK14) (Homo sapiens, UniProt Q16539); conditions: live HEK293 cells, 60 min; BIRB796 5 nM, sorafenib 5 μM; DMSO 44.3 °C
[9] = tested on: Huh7 cells; assay: Uptake into Huh7 liver cancer cells; assay type: in vitro ADME, human
[10] = cited from earlier work
[11] = target: T4, hOATP2B1 (Homo sapiens, UniProt O94956); assay: Sorafenib uptake by HEK cells overexpressing hOATP2B1; assay type: in vitro ADME; conditions: Figure S4
T4 sequence (O94956 1-709): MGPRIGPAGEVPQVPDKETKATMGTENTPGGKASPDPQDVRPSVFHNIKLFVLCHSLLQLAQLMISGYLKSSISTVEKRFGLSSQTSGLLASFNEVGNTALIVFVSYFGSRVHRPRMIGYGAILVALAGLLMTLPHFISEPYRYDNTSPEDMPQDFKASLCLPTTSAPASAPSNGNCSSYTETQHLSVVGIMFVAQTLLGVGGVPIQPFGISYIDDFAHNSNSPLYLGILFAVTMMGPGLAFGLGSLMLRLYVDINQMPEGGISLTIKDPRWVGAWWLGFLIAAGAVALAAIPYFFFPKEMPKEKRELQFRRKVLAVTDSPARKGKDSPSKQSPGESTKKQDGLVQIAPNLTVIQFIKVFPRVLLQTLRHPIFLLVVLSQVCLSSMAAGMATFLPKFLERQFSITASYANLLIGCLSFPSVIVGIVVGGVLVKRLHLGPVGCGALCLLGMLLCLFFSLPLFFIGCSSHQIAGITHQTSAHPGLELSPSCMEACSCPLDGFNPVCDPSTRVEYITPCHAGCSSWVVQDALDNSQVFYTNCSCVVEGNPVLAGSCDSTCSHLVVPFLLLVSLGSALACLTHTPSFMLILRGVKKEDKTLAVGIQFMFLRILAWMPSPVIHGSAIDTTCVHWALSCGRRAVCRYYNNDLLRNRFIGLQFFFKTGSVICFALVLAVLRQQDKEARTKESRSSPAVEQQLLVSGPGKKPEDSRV

[12] = target: T1, human OCT1; assay: Uptake into HEK293 cells expressing human OCT1
[13] = target: T5, OATP2B1 (Mus musculus, UniProt Q8BXB6); assay: Sorafenib pharmacokinetics in OATP2B1-deficient mice; assay type: in vivo; conditions: Figure S4
T5 sequence (Q8BXB6 1-683): T3 sequence (Q8BXB6 1-683)

[14] = tested on: HeLa cells; assay: Sorafenib uptake and membrane binding in HeLa cells; assay type: in vitro ADME; conditions: for Interference with non-specific membrane binding of sorafenib: isolated membrane fraction
[15] = tested on: Oct1; assay: Pharmacokinetics in Oct1-deficient versus wild-type mice; conditions: for Pharmacokinetic parameters, Oct1-deficient vs wild-type mice: sorafenib single oral dose 10 mg/kg, plasma

Sequence of human OCT2 (O15244 whole entry): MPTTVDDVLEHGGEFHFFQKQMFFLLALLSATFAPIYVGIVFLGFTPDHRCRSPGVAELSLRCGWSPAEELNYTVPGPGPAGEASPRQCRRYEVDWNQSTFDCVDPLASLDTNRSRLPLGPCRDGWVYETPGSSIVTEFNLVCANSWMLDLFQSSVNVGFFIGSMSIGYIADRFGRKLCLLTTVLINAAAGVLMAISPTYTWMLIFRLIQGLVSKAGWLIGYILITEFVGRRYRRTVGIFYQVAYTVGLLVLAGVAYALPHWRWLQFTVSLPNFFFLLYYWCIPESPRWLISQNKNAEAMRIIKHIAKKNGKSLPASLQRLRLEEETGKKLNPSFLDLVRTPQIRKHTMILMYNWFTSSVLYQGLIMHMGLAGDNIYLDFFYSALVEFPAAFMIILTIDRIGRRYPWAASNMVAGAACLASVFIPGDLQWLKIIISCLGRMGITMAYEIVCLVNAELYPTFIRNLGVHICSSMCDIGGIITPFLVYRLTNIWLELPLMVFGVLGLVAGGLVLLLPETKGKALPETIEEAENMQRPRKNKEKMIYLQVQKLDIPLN
Sequence of p38α (MAPK14) (Q16539 whole entry): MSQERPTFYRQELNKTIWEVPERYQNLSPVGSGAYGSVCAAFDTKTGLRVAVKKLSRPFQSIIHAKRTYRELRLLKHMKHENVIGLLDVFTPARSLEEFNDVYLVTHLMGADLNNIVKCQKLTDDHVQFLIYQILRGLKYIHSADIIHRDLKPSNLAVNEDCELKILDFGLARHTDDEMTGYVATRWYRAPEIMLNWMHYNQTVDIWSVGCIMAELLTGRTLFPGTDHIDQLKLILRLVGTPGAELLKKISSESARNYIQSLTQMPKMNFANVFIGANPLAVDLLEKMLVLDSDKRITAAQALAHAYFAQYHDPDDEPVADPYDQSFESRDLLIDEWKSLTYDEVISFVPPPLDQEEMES

Question: With `CNC(=O)c1cc(Oc2ccc(NC(=O)Nc3ccc(Cl)c(C(F)(F)F)c3)cc2)ccn1` [sorafenib] as the molecule, how does the “Sorafenib uptake, OCT1-expressing vs nonexpressing oocytes” value ([1]; sorafenib 2 μM, 20 min, absence or presence of MPP […]) read?
Answer: The value was “not different”.

Question: What about the “Characteristics of intracellular accumulation of sorafenib” value ([2]; HepG2) of the same molecule?
Answer: The value was “saturable, increased over time, and was found to be temperature-dependent”.

Question: What about the IC50 [3] of the same molecule?
Answer: The IC50 was 38 nM.

Question: What about the “Transport of sorafenib by OCT3” value [4] of the same molecule?
Answer: Its value is “do not transport sorafenib”.

Question: What about the “Transport of sorafenib by OCT2” value [5] of the same molecule?
Answer: The value was “do not transport sorafenib”.

Question: And the “Sorafenib uptake, HEK-VC vs mOATP2B1-overexpressing HEK cells” value [6]?
Answer: Its value is “did not detect a different sorafenib uptake”.

Question: What about the “Inhibition of the transport of known OCT1 substrates” value [7] of the same molecule?
Answer: Its value is “poor inhibitor”.

Question: And the “Apparent aggregation temperature of p38α” value [8]?
Answer: Its value is 54.5 °C.

Question: And the “Characteristics of intracellular accumulation of sorafenib” value ([9]; Huh7)?
Answer: The value was “saturable, increased over time, and was found to be temperature-dependent”.

Question: And the “Fraction of dose found in urine” value [10]?
Answer: Its value is “About 19%”.

Question: What about the “Sorafenib uptake, HEK-VC vs hOATP2B1-overexpressing HEK cells” value [11] of the same molecule?
Answer: The value was “did not detect a different sorafenib uptake”.

Question: And the “Sorafenib uptake, HEK293-OCT1 vs HEK293-VC cells” value ([12]; sorafenib 0.2 μM, 10 min)?
Answer: The value was “no difference”.

Question: What about the “Sorafenib transport at 4 °C compared with 37 °C” value ([12]; sorafenib 7.5 μM, HEK293 cells, independently of OCT1) of the same molecule?
Answer: Its value is “reduced”.

Question: And the “Time at which sorafenib uptake reaches a plateau” value ([12]; sorafenib 7.5 μM, both HEK293-OCT1 and HEK293-VC cells)?
Answer: Its value is “about 10 min”.

Question: What about the “Effect of OATP2B1 deficiency in mice on sorafenib pharmacokinetics” value [13] of the same molecule?
Answer: The value was “did not detect”.

Question: What about the “Apparent cellular uptake of sorafenib” value ([14]; HeLa cells, sorafenib 0.2 μM, 10-min incubation) of the same molecule?
Answer: Its value is > 800 pmol/mg protein.

Question: What about the “Non-specific binding to cell membranes, share of total cell-associated drug” value ([14]; confirms earlier observation of ref 25) of the same molecule?
Answer: Its value is “up to 70%”.

Question: What about the “Liver concentrations, Oct1-deficient vs wild-type mice” value ([15]; sorafenib 10 mg/kg oral, 7.5 h) of the same molecule?
Answer: Its value is “no significant differences”.

Question: And the “Pharmacokinetic parameters, Oct1-deficient vs wild-type mice” value [15]?
Answer: Its value is “minimal difference”.

Question: For `CNC(=O)c1cc(Oc2ccc(NC(=O)Nc3ccc(Cl)c(C(F)(F)F)c3)cc2)cc[n+]1[O-]` [sorafenib-N-oxide], which “Transport of sorafenib-N-oxide by OCT1” value ([12]; 1 μM, HEK293 cells expressing VC or OCT1, time-dependent uptake) is on record?
Answer: Its value is “not transported by OCT1”.

Question: And the Hepatic levels ([15]; sorafenib 10 mg/kg oral, 7.5 h, data not shown)?
Answer: The Hepatic levels was “below the lower limit of quantification”.

Question: What about the “Pharmacokinetic parameters, Oct1-deficient vs wild-type mice” value [15] of the same molecule?
Answer: Its value is “minimal difference”.

Question: Which “Increase of MPP uptake, OCT1 present vs absent” value ([1]; MPP 1 μM, 20 min) does the source give for `C[n+]1ccc(-c2ccccc2)cc1` [MPP] here?
Answer: Its value is 13 fold.

Question: What about the “Uptake of MPP into oocytes in the presence of OCT1” value ([1]; MPP 1 μM, 20 min, OCT1-expressing oocytes) of the same molecule?
Answer: The value was 2.1 pmol/oocyte/20 min.

Question: And the “Uptake of MPP into oocytes in the absence of OCT1” value ([1]; MPP 1 μM, 20 min, nonexpressing oocytes)?
Answer: The value was 0.16 pmol/oocyte/20 min.

Question: And the “Effect of excess MPP on OCT1-mediated MPP uptake” value ([1]; […] MPP as inhibitor, 1 μM MPP as substrate)?
Answer: Its value is “completely blocked”.

Question: Which results are given for `CCN1/C(=C/c2ccc3ccccc3[n+]2CC)C=Cc2ccccc21.[I-]` [decynium22]?
Answer: Effect of inhibitor on sorafenib uptake in HEK293-OCT1 and HEK293-VC cells ([12]; decynium22 5 μM, sorafenib 0.2 μM, 10 min): decreased sorafenib uptake; Effect of inhibitor on TEA uptake in OCT1 transfectants ([12]; probe substrate TEA, OCT1-transfected HEK293 cells): almost completely abolished; Interference with non-specific membrane binding of sorafenib ([14]; HeLa cells): neither inhibitor interfered

Question: For cyclosporin A, which “Interference with non-specific membrane binding of sorafenib” value ([14]; HeLa cells) is on record?
Answer: The value was “neither inhibitor interfered”.

Question: What does the source list for `CC[N+](CC)(CC)CC` [TEA]?
Answer: TEA uptake compared to HEK293-OCT1 cells ([2]; HepG2, TEA 100 μM, 10 min): did not take up appreciable levels; TEA uptake compared to HEK293-OCT1 cells ([9]; Huh7, TEA 100 μM, 10 min): did not take up appreciable levels; Increase of TEA uptake in HEK293-OCT1 vs HEK293-VC cells ([12]; TEA 100 μM, 10 min): 23.5±1.2 fold
